This note sets out measurements from patent publication US11149046B2, “Antibacterial sideromycins” (Hsiri Therapeutics, Inc., priority 2014, dated 2021).

Converted amounts (≈) assume the structure as drawn. Like-named read-outs stand apart in the source and are kept apart here. Bounds are passed on as bounds.

One data set has as its system P. aeruginosa KW799/wt. Put plainly: MIC determination. Format: cell-based, Pseudomonas aeruginosa. From the text:
(§1) Table 3 that was included in the first Example 4 section provides antibacterial data for the first synthetic sideromycins we prepared and studied. The second Example 4 section elaborated and expanded on that data with inclusion of representative antibacterial data in the text and associated pictures of Petri dish assays. MIC (minimum inhibition concentration) is given in μM and AD (agar diffusion zones of inhibition are given in mm from Kirby-Bauer Petri dish growth inhibition studies).

The next data set relates to Pa6. Put plainly: MIC determination. Format: cell-based, Pseudomonas aeruginosa. Particulars: read-out: MIC. From the text: (§2) MIC (minimum inhibition concentration) is given in μM and AD (agar diffusion zones of inhibition are given in mm from Kirby-Bauer Petri dish growth inhibition studies).
In data set [1] the test system is Pa-Da-1304 CF patient isolate. The data set is described as follows: MIC determination. Format: cell-based, Pseudomonas aeruginosa. The note with it: clinical isolate from a cystic fibrosis patient.
Text: as §2
We obtained a clinical isolate of Pseudomonas from a cystic fibrosis patient.

The test system of data set [2] is Pseudomonas aeruginosa 01 (Pa01). The data set is described as follows: MIC determination. The format is cell-based.
Text: as §1

A short description of the next data set: Stability assay in media. The format is physicochemical. From the text: The initial antibacterial assay shown in Table 6 indicated activity against select strains of Pseudomonas and/or Acinetobacter. However, the reduction of activity at higher concentrations but excellent activity at lower, drug like concentrations, raised the concern that either the conjugates were unstable or some of the siderophore component remained in the final conjugate and at higher concentrations, the siderophore growth promotion would compete for the sideromycin growth inhibition. The possible instability was considered to be due to the presence of the short succinate linker that upon bacterial uptake and iron removal would promote intramolecular release of the antibiotic component and regeneration of the siderophore with subsequent growth promotion effects. […] Meanwhile, the assays were repeated with intentional addition (titration with) of the siderophore component itself to the sideromycins. […] Therefore, each of these mixed ligand sideromycins has been resynthesized and rigorously purified. […] MIC antibacterial assays are being repeated with the newly prepared samples. […] Thus, the mixed ligand system has the potential to be a very potent and selective anti-Acinetobacter sideromycin.

Data set [3] has as its system strains of Pseudomonas and Acinetobacter. Put plainly: Antibacterial activity, general statements. The format is cell-based. Particulars: general statements of the text. On the procedure: Antibiotic activity was determined using agar diffusion assays against representative Gram-negative bacteria, including Pseudomonas aeruginosa (Pa6), and several multidrug resistant forms of Acinetobacter baumannii. Representative results are shown in Table 1 and a corresponding picture of an actual petri dish showing the agar diffusion results (FIG. 4). […].

The nature of data set [4]: Cytotoxicity assay. The note with it: human, PC3 cells.
Data set [5] is described as follows: Cytotoxicity assay. Particulars: human, MCF7 cells.
A short description of data set [6]: Cytotoxicity assay. The note with it: human, HeLa cells.
For the next data set, the system named is Pa4. Put plainly: MIC determination. The format is cell-based, Pseudomonas aeruginosa.
Text: as §1

A further data set relates to A. baumannii ATCC 17961. Put plainly: MIC determination. Format: cell-based, Acinetobacter baumannii.
Text: as §1

For the next data set, the system named is A. baumannii ARC 3486. The data set is described as follows: MIC determination. The format is cell-based. Particulars: Acinetobacter baumannii, ARC3486; Table 2; read-out: in vitro activity (MIC).
The next data set deals with A. baumannii ISR 14-0061. Put plainly: MIC determination. The format is cell-based. Particulars: Acinetobacter baumannii, ISR140061; Table 2; read-out: in vitro activity (MIC).
For data set [7], the system named is Burkholderia multivorans AU0100. The data set is described as follows: MIC determination. The format is cell-based. The note with it: Table 2, read-out: in vitro activity (MIC).
The next data set concerns S. Aureus ISR 14-001. The data set is described as follows: MIC determination. The note with it: Staphylococcus aureus; Table 2; read-out: in vitro activity (MIC). The format is cell-based.
Another data set has as its system S. Aureus ISR-002. The data set is described as follows: MIC determination. The format is cell-based. The note with it: Staphylococcus aureus; Table 2; read-out: in vitro activity (MIC).
The test system of the next data set is E. coli DC0. Put plainly: MIC determination. The format is cell-based. Particulars: Escherichia coli, DC0, read-out: in vitro activity (MIC).
Text: as §1

The next data set concerns P. aeruginosa Pa6. Put plainly: Agar diffusion assay. The format is cell-based, Pseudomonas aeruginosa. Particulars: Pseudomonas aeruginosa, PA6; M-HII media; 0.5 mM (ciprofloxacin 5 μg/ml), 50 uL per well, 37° C. 20 hrs; P unclear, V very unclear zone; read-out: Zone of Growth Inhibition. On the procedure: (§3) Antibiotic activity was determined using agar diffusion assays against representative Gram-negative bacteria, including Pseudomonas aeruginosa (Pa6), and several multidrug resistant forms of Acinetobacter baumannii. Representative results are shown in Table 1 and a corresponding picture of an actual petri dish showing the agar diffusion results (FIG. 4). […]. [table]
(In general: In agar diffusion tests the substance spreads into inoculated agar from a disc or well.)

The subject of another data set is A. baumannii BAA 1710. The data set is described as follows: Agar diffusion assay. The note with it: Acinetobacter baumannii, BAA1710; M-HII media; 0.5 mM (ciprofloxacin 5 μg/ml), 50 uL per well, 37° C. 20 hrs; P unclear zone; read-out: Zone of Growth Inhibition. The format is cell-based, Acinetobacter baumannii. On the procedure: as §3
The next data set relates to A. baumannii BAA 1793. Put plainly: Agar diffusion assay. The format is cell-based, Acinetobacter baumannii. The note with it: Acinetobacter baumannii, BAA1793; M-HII media; 0.5 mM (ciprofloxacin 5 μg/ml), 50 uL per well, 37° C. 20 hrs; P unclear zone; read-out: Zone of Growth Inhibition. Here is the method: as §3
The test system of another data set is A. baumannii BAA 1797. Put plainly: Agar diffusion assay. Format: cell-based, Acinetobacter baumannii. The note with it: Acinetobacter baumannii, BAA1797; M-HII media; 0.5 mM (ciprofloxacin 5 μg/ml), 50 uL per well, 37° C. 20 hrs; P unclear zone; read-out: Zone of Growth Inhibition. On the procedure: as §3
For the next data set, the system named is A. baumannii BAA 1800. The data set is described as follows: Agar diffusion assay. The note with it: Acinetobacter baumannii, BAA1800; M-HII media; 0.5 mM (ciprofloxacin 5 μg/ml), 50 uL per well, 37° C. 20 hrs; read-out: Zone of Growth Inhibition. The format is cell-based, Acinetobacter baumannii. On the procedure: as §3
The test system of data set [8] is Acinetobacter baumannii ATCC 17961. The data set is described as follows: In vivo activity against Acinetobacter baumannii in mice (FIG. 7). The note with it: 50 mg/kg IV at 30 min and 24 hr post inoculation; IP 10^8 A. baumannii ATCC 17961; female ICR mice. Here is the method:
Y-axis is percent surviving; x-axis is days after inoculation. Note: 5/5 Vehicle and 5/5 daptomycin treated mice were all dead at Day 1; […] female ICR mice; IP inoculation with 10^8 Acinetobacter baumannii ATCC 17961; Treatment administered IV at 30 min and 24 hr post inoculation; Treatments—Ciprofloxacin 50 mg/kg, HT-10100 mg/kg, HT-10 50 mg/kg, HT-10 25 mg/kg, HT-10 10 mg/kg, HT-10 5 mg/kg, daptomycin 50 mg/kg, Vehicle.

Data set [9] concerns multi-drug resistant Acinetobacter. Put plainly: Dose dependent agar diffusion (FIG. 5). The format is cell-based. From the text: Note Daptomycin is not active (arrow),

As to `CC(=O)Oc1cccc(C(=O)NCCCCN(CCCNC(=O)c2cccc(OC(C)=O)c2OC(C)=O)C(=O)CCC(=O)NCCCCCN(OC(C)=O)C(=O)CCC(=O)N[C@@H](C(=O)N[C@@H]2C(=O)N3C2SC(C)(C)[C@@H]3C(=O)O)c2ccccc2)c1OC(C)=O` (some centres unmarked) [MG-1-121], the “MIC” value is 0.14 to 0.2 µM in the data set with P. aeruginosa KW799/wt; 0.14 to 0.2 µM (≈ 0.176 to 0.252 µg/mL) in the data set with P. aeruginosa KW799/wt (Pseudomonas aeruginosa, KW799/WT, Table 6, read-out: MIC); 0.05 µM (≈ 0.063 µg/mL) with P. aeruginosa KW799/wt (listed as MG-1-239, read-out: MIC); more than 50 µM in the data set on Pa6 (Pseudomonas aeruginosa, Table 6); more than 50 µM in data set [1] (Pseudomonas aeruginosa); 0.39 to 0.55 µM in data set [2]. Moreover, the MIC is 0.39 to 0.55 µM (≈ 0.491 to 0.693 µg/mL) in [2] (Pseudomonas aeruginosa, Table 6, read-out: MIC) and 0.2 µM (≈ 0.252 µg/mL) in data set [2] (Pseudomonas aeruginosa, read-out: MIC). Moreover, the “stability in media (in words)” value in “Stability assay in media” (incubated in media under conditions that mimic the antibacterial assays, LC/MS) is recorded as “expected loss of acetyl groups”. Moreover, the “antibacterial activity (in words)” value in data set [3] was “broad spectrum activity”. Further, the IC50 in “Cytotoxicity assay [4]”, in “Cytotoxicity assay [5]” and in “Cytotoxicity assay [6]” was more than 20 µM throughout.
As to `O=C(CCC(=O)N(CCCCNC(=O)c1cccc(O)c1O)CCCNC(=O)c1cccc(O)c1O)NCCCCCN(O)C(=O)CCCC(=O)NC(C(=O)NC1C(=O)N2C(C(=O)O)=C(Cl)CCC12)c1ccccc1` (centres unmarked) [MG-1-227], the MIC is reported as 0.2 µM (≈ 0.213 µg/mL) in the data set with P. aeruginosa KW799/wt (read-out: MIC); more than 50 µM against Pa4; more than 50 µM with Pa6 (beta-lactamase producer strain); more than 50 µM in data set [1]; 0.025 µM (≈ 0.0266 µg/mL) in the data set with A. baumannii ATCC 17961 (read-out: MIC). The “stability in media (in words)” value in “Stability assay in media” is given as “showed the desired stability”. For the same compound, the IC50 with PC3 was 15 µM; in the data set with MCF7, 11 µM; with Hela, more than 20 µM.
Consider `CCCCCCCCCC(=O)N[C@@H](Cc1c[nH]c2ccccc12)C(=O)N[C@H](CC(N)=O)C(=O)N[C@@H](CC(=O)O)C(=O)N[C@@H]1C(=O)NCC(=O)N[C@@H](CCCN)C(=O)N[C@@H](CC(=O)O)C(=O)N[C@H](C)C(=O)N[C@@H](CC(=O)O)C(=O)NCC(=O)N[C@H](CO)C(=O)N[C@@H]([C@H](C)CC(=O)O)C(=O)N[C@@H](CC(=O)c2ccccc2N)C(=O)O[C@@H]1C` [daptomycin], for which the MIC in the data set on A. baumannii ATCC 17961 (Acinetobacter baumannii, ATCC17961, Table 2, read-out: in vitro activity (MIC)) was more than 100 µM; in the data set on A. baumannii ARC 3486, more than 200 µM; in the data set with A. baumannii ISR 14-0061, more than 100 µM; in [7], more than 100 µM; in the data set with S. Aureus ISR 14-001, 0.8 µM (≈ 1.3 µg/mL); in the data set on S. Aureus ISR-002, 0.8 µM (≈ 1.3 µg/mL). In addition, the MIC in the data set with E. coli DC0 was more than 100 µM; in data set [2] (Pseudomonas aeruginosa, Table 2, read-out: in vitro activity (MIC)), more than 100 µM. In addition, the zone of inhibition at 500 µM in the data set on P. aeruginosa Pa6, in the data set on A. baumannii BAA 1710, in the data set with A. baumannii BAA 1793, in the data set with A. baumannii BAA 1797 and in the data set with A. baumannii BAA 1800 was 0 mm in each case. For the same compound, the “treated mice dead at Day 1” value in data set [8] was 5/5. In addition, in data set [3], the “antibacterial activity (in words)” value was “completely inactive”. In data set [9], the “in vitro activity (in words)” value is listed as “not active”.

For orientation: MIC means the lowest concentration that inhibits growth of the organism. A word on the IC50: it is the midpoint of a concentration-inhibition curve. Read a high IC50 as lower potency. A word on the zone of inhibition: it is the size of the clear area around the sample on an inoculated plate.
